# Source: paper PMC7367283, “A PIP2 substitute mediates voltage sensor-pore coupling in KCNQ activation” (Communications Biology, 2020)
# Where “and” joins values, the source holds several entries; their conditions need not be identical. Equal values may be shown once.
# Molecular target: KCNQ1 (Homo sapiens, UniProt P51787)
# Assay: Two-electrode voltage clamp of WT KCNQ1 expressed in Xenopus oocytes
# Type: cell-based
# Conditions: for Current: Fig. 3b; for G/Gmax Mean: Fig. 3c; for ΔV1/2 of activation induced by CP1: Fig. 3e dose response; for Time constants of deactivation: Fig. 3d, individual values
# Description: Complementary DNA (cDNA) encoding human KCNQ1 (UniProtKB/Swiss-Prot under accession no. P51787), KCNQ2 (O43526), KCNQ3 (O43525), KCNE1 (P15382), Kir1.1 (P48048), hERG (Q12809), KV4.2 (Q63881), NaV1.5 (Q14524), NaV β1 (Q07699), CaV1.2 (Q13936), CaV β1a (Q02641), CaV α2/δ1 (P54289), and HCN4 (Q9Y3Q4) were subcloned into oocyte expression vectors, respectively. Site-directed mutations of the KCNQ1 channel were all produced by overlap extension polymerase chain reaction (PCR) with high-fidelity Pfu polymerase (Stratagene, CA). The presence of the desired mutation was verified by sequencing the PCR-amplified regions. All the primer sequences used in this study are available in Supplementary Table 1. The complementary RNA (cRNA) of all these channels and mutations was transcribed in vitro with the T3, T7, or SP6 polymerase mMessage mMachine kit (Invitrogen, Thermo Fisher Scientific, MO). The use of Xenopus laevis to obtain oocytes was approved by the Washington University Animal Studies Committee (protocol #20190030). Oocytes were manually dispersed and digested with collagenase (0.5 mg/ml, Sigma-Aldrich, Saint Louis, MO) to remove the follicle cell layer. Stage V or VI oocytes were selected and injected with cRNAs (9.2 ng) of channel or mutations. Especially, to characterize IKs, a mix of cRNAs at a molar ratio 4:1 (KCNQ1:KCNE1) was injected. For KCNQ2/KCNQ3, the molar ratio was 1:1 (KCNQ2:KCNQ3). For sodium channels, a 3:1 molar ratio (β1:NaV1.5) and for calcium channels a weight ratio 1:1:1 (β1:α2/δ1:CaV1.2) was injected, respectively. Injected oocytes were incubated in ND96 solution containing (in mM) 96 NaCl, 2 KCl, 1.8 CaCl2, 1 MgCl2, and 5 HEPES, pH 7.6, supplemented with 2.5 mM Na pyruvate and 1% penicillin-streptomycin, at 18 °C for 3-7 days before recording. All electrophysiological recordings on oocytes and isolated ventricular cells were performed at room temperature (20-23 °C). The whole-oocyte ionic currents were recorded with a GeneClamp 500B amplifier (Axon Instruments, CA) or iTEV90 amplifier (HEKA, Germany) and then sampled at 1 kHz and low-pass-filtered at 2 kHz. The Patchmaster software (HEKA, Germany) was used to acquire data. The Kir1.1 current was recorded with a high K^+ bath solution containing (in mM) 96 KCl, 4 NaCl, 1 CaCl2, 2 MgCl2, and 10 HEPES, pH 7.3-7.4. The HCN4 current was recorded in ND66 solution containing (in mM) 66 NaCl, 32 KCl, 1.8 CaCl2, 1 MgCl2, and 5 HEPES, pH 7.6. All the other potassium channels were recorded in ND96 solution. The currents of CaV1.2 channel were recorded in 40 mM Ba^2+ bath solution containing (in mM) 40 Ba(OH)2, 50 TEA-OH, 2 KOH, and 5 HEPES, adjusted to pH 7.4 with methanesulfonic acid. […] All the chemicals were purchased from Sigma-Aldrich. To measure the I-V relations of the Kir1.1 channel, the test voltage was set from -100 to +60 mV for 1 s with 20-mV increments. […] The HCN4 currents were recorded by a test pulse between -30 and -140 mV in 10-mV step from a holding potential of -30 mV. For all the other potassium channels and CaV1.2 channel, the holding potential was -80 or -100 mV, and the test pulse was applied with 10-mV increment, which was followed with a repolarization pulse at -40 mV before returning to the holding potential. The durations of test and the repolarization pulse vary for different channels to allow the activation and deactivation of the channel to reach their steady states. Electrophysiology data were processed with IGOR (Wavemetrics, Lake Oswego, OR), Clampfit (Molecular Devices, Sunnyvale, CA), and SigmaPlot (SPSS, Inc., San Jose, CA). Normalized tail currents were plotted versus prepulse voltage and fitted with the Boltzmann function G = G0 + 1/(1 + exp(V - V1/2)/S), where G0 is the minimum conductance, V1/2 is the half-maximal voltage of activation, and S is the slope factor. […]
structure (smiles),measurement,setting,value
"O=S(=O)([O-])Oc1c(-c2sc3c(ccc4cccc(Cl)c43)c2OS(=O)(=O)[O-])[nH]c2ccc(Br)cc12.[Na+].[Na+] [CP1, DISODIUM 5-BROMO-2-[9-CHLORO-3-(SULFONATOOXY) NAPHTHO [1,2-B] THIEN-2-YL]-1H-INDOL-3-YL SULFATE]",outward current (Icp1/Ictrl),"10 µM CP1, Q1, at −10 mV, individual oocytes",0.8052 and 0.8187 and 0.929 and 0.8224 and 0.7283
same,∆V1/2,"10 µM CP1, Q1, individual oocytes (Fig. 5c)",44.3815 mV and 57.8695 mV and 53.8703 mV and 54.2596 mV and 54.8585 mV
same,∆V1/2,"10 µM CP1, WT, individual oocytes",47.2416 mV and 59.5412 mV and 44.3815 mV and 57.8695 mV and 53.8703 mV and 54.2596 mV and 54.8585 mV and 51.8892 mV and 58.8475 mV and 52.7212 mV and 56.3253 mV
same,τ deact at -120 mV,"10 µM CP1 treated, Q1, individual oocytes",1.3301 s and 1.9909 s and 0.8395 s and 0.9034 s and 1.9351 s and 1.4782 s and 1.0081 s
same,Current,"10 µM CP1, 0 mV",3.7050 µA
same,Current,"10 µM CP1, 10 mV",4.0550 µA
same,Current,"10 µM CP1, 20 mV",4.3975 µA
same,Current,"10 µM CP1, 30 mV",4.6856 µA
same,Current,"10 µM CP1, 40 mV",4.8369 µA
same,Current,"10 µM CP1, -10 mV",3.2725 µA
same,Current,"10 µM CP1, -20 mV",2.9419 µA
same,Current,"10 µM CP1, -30 mV",2.4731 µA
same,Current,"10 µM CP1, -40 mV",1.9956 µA
same,Current,"10 µM CP1, -50 mV",1.5250 µA
same,Current,"10 µM CP1, -60 mV",1.0387 µA
same,Current,"10 µM CP1, -70 mV",0.5337 µA
same,Current,"10 µM CP1, -80 mV",0.1319 µA
same,Current,"10 µM CP1, -90 mV",-0.1563 µA
same,Current,"10 µM CP1, -100 mV",-0.3112 µA
same,Current,"10 µM CP1, -110 mV",-0.3831 µA
same,Current,"10 µM CP1, -120 mV",-0.4494 µA
same,G/Gmax Mean,"10 µM CP1, 0 mV",0.9915
same,G/Gmax Mean,"10 µM CP1, 10 mV",0.9924
same,G/Gmax Mean,"10 µM CP1, -10 mV",1.0000
same,G/Gmax Mean,"10 µM CP1, -20 mV",0.9950
same,G/Gmax Mean,"10 µM CP1, -30 mV",0.9789
same,G/Gmax Mean,"10 µM CP1, -40 mV",0.9526
same,G/Gmax Mean,"10 µM CP1, -50 mV",0.9082
same,G/Gmax Mean,"10 µM CP1, -60 mV",0.8392
same,G/Gmax Mean,"10 µM CP1, -70 mV",0.7434
same,G/Gmax Mean,"10 µM CP1, -80 mV",0.6159
same,G/Gmax Mean,"10 µM CP1, -90 mV",0.4868
same,G/Gmax Mean,"10 µM CP1, -100 mV",0.3712
same,G/Gmax Mean,"10 µM CP1, -110 mV",0.2836
same,G/Gmax Mean,"10 µM CP1, -120 mV",0.2306
same,ΔV1/2 of activation induced by CP1,"1 µM CP1, individual values",10.5419 and 2.1756 and 5.0919
same,ΔV1/2 of activation induced by CP1,"2 µM CP1, individual values",12.1917 and 9.8070 and 18.4095 and 22.1605 and 21.9879 and 9.1767 and 12.7137
same,ΔV1/2 of activation induced by CP1,"5 µM CP1, individual values",24.5897 and 25.8044 and 18.4530 and 34.4519 and 16.0115 and 11.0322
same,ΔV1/2 of activation induced by CP1,"10 µM CP1, individual values",47.2416 and 73.6056 and 59.5412 and 44.3815 and 57.8695 and 53.8703 and 54.2596 and 54.8585 and 51.8892 and 58.8475 and 52.7212 and 56.3253
same,ΔV1/2 of activation induced by CP1,"25 µM CP1, individual values",80.4973 and 70.5486 and 58.5444
same,ΔV1/2 of activation induced by CP1,"50 µM CP1, individual values",90.4999 and 79.3797 and 90.4855
same,Time constants of deactivation,"10 µM CP1, -90 mV",3656.5 ms and 3430.6 ms and 3945.9 ms and 3244.2 ms
same,Time constants of deactivation,"10 µM CP1, -100 mV",3169.0 ms and 2901.8 ms and 2335.0 ms and 2809.3 ms and 2214.2 ms
same,Time constants of deactivation,"10 µM CP1, -110 mV",1447.9 ms and 2103.3 ms and 1665.7 ms and 1887.0 ms and 1619.5 ms
same,Time constants of deactivation,"10 µM CP1, -120 mV",823.6 ms and 1460.2 ms and 1255.8 ms and 1290.8 ms and 1343.2 ms
same,EC50,"KCNQ1 expressed alone in oocytes, Hill fit, read-out: EC50 of G–V shift (ΔV1/2 of activation) versus CP1 concentration",8.73 ± 0.68 µM
same,ion selectivity of KCNQ1 channels,Supplementary Fig. 2,does not alter the ion selectivity
same,G/Gmax,"WT, 10 µM CP1, -20 mV",1.0000
same,G/Gmax,"WT, 10 µM CP1, -30 mV",0.9911
same,G/Gmax,"WT, 10 µM CP1, -40 mV",0.9627
same,G/Gmax,"WT, 10 µM CP1, -50 mV",0.9093
same,G/Gmax,"WT, 10 µM CP1, -60 mV",0.8189
same,G/Gmax,"WT, 10 µM CP1, -70 mV",0.6709
same,G/Gmax,"WT, 10 µM CP1, -80 mV",0.4831
same,G/Gmax,"WT, 10 µM CP1, -90 mV",0.2996
same,G/Gmax,"WT, 10 µM CP1, -100 mV",0.1522
same,G/Gmax,"WT, 10 µM CP1, -110 mV",0.0549
same,G/Gmax,"WT, 10 µM CP1, -120 mV",0.0000
